Where two headings read alike, the source gives them in different places.
What was measured:
human DGKζ = human DGKζ (Homo sapiens (Human), UniProt Q13574); experiment: DGKζ assay (detergent/lipid micelle substrate); format: biochemical; details: detergent/lipid micelle substrate; read-out: DGKζ IC50
In short: (§1)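 Enzymes were baculovirus/Sf9 full-length human DGKα or DGKζ with His tag. The substrate was PS/DAG in octyl glucoside micelles, in MOPS pH 7.5 buffer with NaCl, MgCl2, CaCl2 and DTT.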

human DGKα = human DGKα (Homo sapiens (Human), UniProt P23743); experiment: biochemical
Sequence of human DGKα (P23743 other isoform, or with tags, fused parts or gaps): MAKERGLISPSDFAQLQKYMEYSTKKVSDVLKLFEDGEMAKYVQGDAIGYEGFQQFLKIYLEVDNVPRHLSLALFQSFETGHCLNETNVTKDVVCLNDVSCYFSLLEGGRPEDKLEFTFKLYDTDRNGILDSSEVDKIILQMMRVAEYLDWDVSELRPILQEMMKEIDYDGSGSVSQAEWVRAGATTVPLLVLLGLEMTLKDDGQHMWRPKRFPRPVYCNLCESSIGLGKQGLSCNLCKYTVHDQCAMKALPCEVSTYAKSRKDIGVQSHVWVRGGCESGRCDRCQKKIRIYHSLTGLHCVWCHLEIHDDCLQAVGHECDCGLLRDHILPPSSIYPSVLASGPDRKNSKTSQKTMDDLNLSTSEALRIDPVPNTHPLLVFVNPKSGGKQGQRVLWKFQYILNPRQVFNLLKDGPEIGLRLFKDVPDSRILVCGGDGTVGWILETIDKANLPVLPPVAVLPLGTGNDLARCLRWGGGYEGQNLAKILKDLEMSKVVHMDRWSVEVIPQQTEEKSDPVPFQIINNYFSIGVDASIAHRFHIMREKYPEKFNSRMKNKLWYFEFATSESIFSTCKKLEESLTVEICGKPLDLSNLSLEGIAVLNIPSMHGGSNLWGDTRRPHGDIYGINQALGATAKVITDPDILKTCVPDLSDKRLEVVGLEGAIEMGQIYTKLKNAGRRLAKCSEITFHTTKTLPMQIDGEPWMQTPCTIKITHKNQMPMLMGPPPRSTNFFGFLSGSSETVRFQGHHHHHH
In short: as §1

[1] = test system: Jurkat AP1-luciferase Reporter; experiment: DGK AP1-Reporter Assay; format: cell-based
Description: The Jurkat AP1-luciferase Reporter was generated using the Cignal Lenti AP1 Reporter (luc) Kit from SABiosciences (CLS-011L).
The sample size was 30 nl per well; and one destination plate per source plate. The cell suspensions were prepared by transferring 40 mL cells (2×20 mL) to clean 50 mL conical tubes. The cells were concentrated by centrifugation (1200 rpm; 5 mins; ambient temperature). […] The cell plates were incubated for 20 minutes at 37° C., and 5% CO2.
During the incubation, anti-CD3 antibody (αCD3) solutions were prepared by mixing 3 μl αCD3 (1.3 mg/mL) with 10 mL medium [final conc=0.4 μg/mL]. Next, 1.5 μl αCD3 (1.3 mg/mL) was mixed with 0.5 mL medium [final conc=4 μg/mL]. After 20 minutes, 10 μl medium was added to all wells in column 1, wells A to M, and 10 μl αCD3 (4 μg/mL) per well was added in column 1, rows N to P for reference. Then using a multi-channel pipette, 10 μl αCD3 (0.4 μg/mL) per well was added. The αCD3 stimulated +/− compound-treated cells were incubated at 37° C., 5% CO2 for 6 hours.
During this incubation period. Steady-Glo (Promega E2520) reagent was slowly thawed on to ambient temperature. Next, 20 μl Steady-Glo reagent per well was added using a multi-drop Combi-dispenser. Bubbles were removed by centrifugation (2000 rpm, ambient temperature, 10 sees). The cells were incubated at room temperature for 5 minutes. Samples were characterized by measuring the Relative Light Units (RLU) with an using Envision Plate Reader Instrument on a luminescence protocol.

[2] = test system: pre-activated CD4 T cells and Raji cells; experiment: Raji CD4 T Cell IL2 Assay; format: cell-based
[3] = detergent/lipid micelle substrate, read-out: DGKα IC50
[4] = Homo sapiens, Jurkat, read-out: API-Luciferase Reporter IC50, Table 3
[5] = read-out: API-Luciferase Reporter IC50, Table 3
[6] = Homo sapiens, Jurkat, read-out: DGKAP1 Lucif Reporter IC50, Table 4

Sequence of human DGKζ (Q13574 other isoform, or with tags, fused parts or gaps): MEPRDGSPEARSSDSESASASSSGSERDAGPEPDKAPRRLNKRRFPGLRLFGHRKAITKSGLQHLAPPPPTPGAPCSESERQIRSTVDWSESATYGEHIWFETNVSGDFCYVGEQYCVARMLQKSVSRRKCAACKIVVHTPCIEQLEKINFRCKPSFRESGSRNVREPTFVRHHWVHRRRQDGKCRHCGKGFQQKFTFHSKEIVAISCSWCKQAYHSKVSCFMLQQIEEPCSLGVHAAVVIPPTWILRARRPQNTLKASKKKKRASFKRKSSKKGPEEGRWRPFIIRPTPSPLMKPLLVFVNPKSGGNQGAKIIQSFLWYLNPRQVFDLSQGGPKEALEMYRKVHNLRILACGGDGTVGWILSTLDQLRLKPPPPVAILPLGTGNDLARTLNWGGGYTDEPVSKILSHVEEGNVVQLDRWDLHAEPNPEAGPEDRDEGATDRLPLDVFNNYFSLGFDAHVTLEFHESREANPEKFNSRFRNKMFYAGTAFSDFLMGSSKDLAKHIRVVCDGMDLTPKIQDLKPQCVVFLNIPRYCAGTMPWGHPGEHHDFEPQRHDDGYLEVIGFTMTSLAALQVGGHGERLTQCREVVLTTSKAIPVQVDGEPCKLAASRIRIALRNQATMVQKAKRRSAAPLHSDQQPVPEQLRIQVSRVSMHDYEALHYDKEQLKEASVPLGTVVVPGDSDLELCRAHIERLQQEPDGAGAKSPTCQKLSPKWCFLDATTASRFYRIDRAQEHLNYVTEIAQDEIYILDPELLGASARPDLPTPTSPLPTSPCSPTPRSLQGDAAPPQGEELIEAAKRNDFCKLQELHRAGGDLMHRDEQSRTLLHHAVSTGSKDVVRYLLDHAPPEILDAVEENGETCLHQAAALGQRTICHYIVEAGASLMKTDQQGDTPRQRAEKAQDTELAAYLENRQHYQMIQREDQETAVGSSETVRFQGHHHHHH

| Compound | IC50 (human DGKζ) [µM] | IC50 (human DGKα; [3]) [µM] | IC50 [1, 4] [µM] | IC50 ([2]; Homo sapiens, Raji) [µM] | IC50 [2] [µM] | IC50 (human DGKα; DGKα IC50, detergent/lipid micelle substrate) [µM] | IC50 [1, 5] [µM] | IC50 [1, 6] [µM] |
| --- | --- | --- | --- | --- | --- | --- | --- | --- |
| COCCn1c(=O)c([N+](=O)[O-])c(N2CCN(C3CCc4ccc(OC)cc43)CC2)c2nc(C#N)ccc21 (stereo not shown) [Example 146, 8-(4-(6-methoxy-2,3-dihydro-1H-inden-1-yl)piperazin-1-yl)-5-(2-methoxyethyl)-7-nitro-6-oxo-5,6-dihydro-1,5-naphthyridine-2-carbonitrile] | 36 | > 240 | 1.87 | > 100 |  |  |  |  |
| Cn1c(=O)c(C#N)c(N2CCN(Cc3c(F)cccc3F)CC2)c2nc(Cl)ccc21 [Example 422, 6-chloro-4-{4-[(2,6-difluorophenyl)methyl]piperazin-1-yl}-1-methyl-2-oxo-1,2-dihydro-1,5-naphthyridine-3-carbonitrile] | > 240 | 1.4 | 3.49 | > 100 |  |  |  |  |
| Cn1c(=O)c([N+](=O)[O-])c(N2CCN(C(c3ccccc3)c3ccccc3O)CC2)c2nc(Br)ccc21 (single isomer, unassigned) [Example 78, 6-bromo-4-(4-((2-hydroxyphenyl)(phenyl)methyl)piperazin-1-yl)-1-methyl-3-nitro-1,5-naphthyridin-2(1H)-one] | > 240 | 12 | 0.14 |  | > 100 |  |  |  |
| COCCn1c(=O)c(C#N)c(N2CCN(C(c3ccc(F)cc3)c3ccc(F)cc3OC)CC2)c2nc(Br)ccc21 (racemic) [Example 114, 6-bromo-4-(4-((4-fluoro-2-methoxyphenyl)(4-fluorophenyl)methyl)piperazin-1-yl)-1-(2-methoxyethyl)-2-oxo-1,2-dihydro-1,5-naphthyridine-3-carbonitrile] | 100 | 120 | 4.12 |  |  |  |  |  |
| CCC(c1ccc(F)cc1)N1CCN(c2c(C#N)c(=O)n(C)c3ccc(Br)nc23)CC1 (racemic) [Example 25, 6-bromo-4-{4-[1-(4-fluorophenyl)propyl]piperazin-1-yl}-1-methyl-2-oxo-1,2-dihydro-1,5-naphthyridine-3-carbonitrile] | > 81 | 0.041 | 1.15 |  |  |  |  |  |
| C#CCn1c(=O)c([N+](=O)[O-])c(N2CCN(C(c3ccc(F)cc3)c3ccccc3O)CC2)c2nc(C#N)ccc21 (racemic) [Example 132, 8-(4-((4-fluorophenyl)(2-hydroxyphenyl)methyl)piperazin-1-yl)-7-nitro-6-oxo-5-(prop-2-yn-1-yl)-5,6-dihydro-1,5-naphthyridine-2-carbonitrile] | 0.15 |  | 0.08 |  |  | 3.3 |  |  |
| C#CCn1c(=O)c([N+](=O)[O-])c(N2CCN(C3CCc4ccc(OC)cc43)CC2)c2nc(C#N)ccc21 (stereo not shown) [Example 138, 8-(4-(6-methoxy-2,3-dihydro-1H-inden-1-yl)piperazin-1-yl)-7-nitro-6-oxo-5-(prop-2-yn-1-yl)-5,6-dihydro-1,5-naphthyridine-2-carbonitrile] | 0.73 | 32 | 0.66 | > 100 |  |  |  |  |
| Cn1c(=O)c(C#N)c(N2CCN(Cc3cccc4cc[nH]c34)CC2)c2nc(Br)ccc21 [Example 373, 6-bromo-4-{4-[(1H-indol-7-yl)methyl]piperazin-1-yl}-1-methyl-2-oxo-1,2-dihydro-1,5-naphthyridine-3-carbonitrile] | 100 | 2.5 | 0.26 | > 100 |  |  |  |  |
| COc1ccccc1C(c1ccc(F)cc1)N1CCN(c2c([N+](=O)[O-])c(=O)n(C)c3ccc(C#N)nc23)CC1 (single isomer, unassigned) [Example 19, 8-{4-[(4-fluorophenyl)(2-methoxyphenyl)methyl]piperazin-1-yl}-5-methyl-7-nitro-6-oxo-5,6-dihydro-1,5-naphthyridine-2-carbonitrile] | 19 | 13 |  | > 100 |  |  | 0.83 |  |
| C#CCn1c(=O)c(C#N)c(N2CCN(Cc3c(C)cc(C)cc3O)CC2)c2nc(Br)ccc21 [Example 69, 6-bromo-4-(4-(2-hydroxy-4,6-dimethylbenzyl)piperazin-1-yl)-2-oxo-1-(prop-2-yn-1-yl)-1,2-dihydro-1,5-naphthyridine-3-carbonitrile] | 13 | 1.3 | 0.51 | > 100 |  |  |  |  |
| Cn1c(=O)c(C#N)c(N2CCN(Cc3ccc(O)c(F)c3)CC2)c2nc(C#N)ccc21 [Example 363, 8-{4-[(3-fluoro-4-hydroxyphenyl)methyl]piperazin-1-yl}-5-methyl-6-oxo-5,6-dihydro-1,5-naphthyridine-2,7-dicarbonitrile] | > 240 | 0.15 | 10 | > 100 |  |  |  |  |
| COc1ccccc1C(c1ccc(F)cc1)N1CCN(c2c(C#N)c(=O)n(C)c3ccc(Br)nc23)CC1 (stereo not shown) [Example 12, 6-bromo-4-{4-[(4-fluorophenyl)(2-methoxyphenyl)methyl]piperazin-1-yl}-1-methyl-2-oxo-1,2-dihydro-1,5-naphthyridine-3-carbonitrile] | > 81 | 1 | 0.58 |  |  |  |  |  |
| C#CCn1c(=O)c([N+](=O)[O-])c(N2CCN(C(c3ccc(F)cc3)c3ccc(F)cc3O)CC2)c2nc(C#N)ccc21 (single isomer, unassigned) [Example 120, 8-(4-((4-fluoro-2-hydroxyphenyl)(4-fluorophenyl)methyl)piperazin-1-yl)-7-nitro-6-oxo-5-(prop-2-yn-1-yl)-5,6-dihydro-1,5-naphthyridine-2-carbonitrile] | > 81 | 18 |  |  |  |  | 1.3 |  |
| Cn1c(=O)c(C#N)c(N2CCN(Cc3c(O)cccc3Cl)CC2)c2nc(Br)ccc21 [Example 390, 6-bromo-4-{4-[(2-chloro-6-hydroxyphenyl)methyl]piperazin-1-yl}-1-methyl-2-oxo-1,2-dihydro-1,5-naphthyridine-3-carbonitrile] | > 240 | 0.87 | 0.8 |  |  |  |  |  |
| Cc1ccc(F)c(CN2CCN(c3c(C#N)c(=O)n(C)c4ccc(Cl)nc34)CC2)c1 [Example 364, 6-chloro-4-{4-[(2-fluoro-5-methylphenyl)methyl]piperazin-1-yl}-1-methyl-2-oxo-1,2-dihydro-1,5-naphthyridine-3-carbonitrile] | > 240 | 1.1 | 1.57 | > 100 |  |  |  | 10 |
| Cn1c(=O)c(C#N)c(N2CCN(CC(O)c3ccc(F)cc3)CC2)c2nc(Br)ccc21 (racemic) [Example 28, 6-bromo-4-{4-[2-(4-fluorophenyl)-2-hydroxyethyl]piperazin-1-yl}-1-methyl-2-oxo-1,2-dihydro-1,5-naphthyridine-3-carbonitrile] | > 81 | 1.3 | 4.45 |  |  |  |  |  |
| COc1ccccc1C(c1ccc(F)cc1)N1CCN(c2c([N+](=O)[O-])c(=O)n(C)c3ccc(C#N)nc23)CC1 (single isomer, unassigned) [Example 20, 8-{4-[(4-fluorophenyl)(2-methoxyphenyl)methyl]piperazin-1-yl}-5-methyl-7-nitro-6-oxo-5,6-dihydro-1,5-naphthyridine-2-carbonitrile] | 4.3 | 3.3 |  |  | > 100 |  | 0.4 |  |
| COc1cccc(Cl)c1CN1CCN(c2c(C#N)c(=O)n(C)c3ccc(Cl)nc23)CC1 [Example 365, 6-chloro-4-{4-[(2-chloro-6-methoxyphenyl)methyl]piperazin-1-yl}-1-methyl-2-oxo-1,2-dihydro-1,5-naphthyridine-3-carbonitrile] | 190 | 3.5 | 2.22 | > 100 |  |  |  | 10 |

Source: patent US11866430B2, “Naphthyridinone compounds useful as T cell activators” (priority 2018, dated 2024)
